For one compound, inhibition and IC50 results are on record in article PMC10281726 (Journal of Food and Drug Analysis, 2023).

What all share (type): biochemical
One experiment addresses MKNK1 (Homo sapiens, UniProt Q9BUB5). In words: kinase panel. Particulars: read-out: % inhibition at 3 μM.
Experiment [1] addresses dual-specific tyrosine phosphorylation-regulated kinase 1A (DYRK1A) (Homo sapiens, UniProt Q13627). Put plainly: Z'-LYTE FRET-peptide kinase assay, dose response.
For the next experiment, the target named is MINK1 (Homo sapiens, UniProt Q8N4C8). Put plainly: kinase panel. To be noted: read-out: % inhibition at 3 μM.
A further experiment has as its target VRK2 (Homo sapiens, UniProt Q86Y07). In words: kinase panel. To be noted: read-out: % inhibition at 3 μM.
A further experiment concerns the target T1, STK3 (Homo sapiens, UniProt Q13188).
T1 sequence (Q13188 1-491): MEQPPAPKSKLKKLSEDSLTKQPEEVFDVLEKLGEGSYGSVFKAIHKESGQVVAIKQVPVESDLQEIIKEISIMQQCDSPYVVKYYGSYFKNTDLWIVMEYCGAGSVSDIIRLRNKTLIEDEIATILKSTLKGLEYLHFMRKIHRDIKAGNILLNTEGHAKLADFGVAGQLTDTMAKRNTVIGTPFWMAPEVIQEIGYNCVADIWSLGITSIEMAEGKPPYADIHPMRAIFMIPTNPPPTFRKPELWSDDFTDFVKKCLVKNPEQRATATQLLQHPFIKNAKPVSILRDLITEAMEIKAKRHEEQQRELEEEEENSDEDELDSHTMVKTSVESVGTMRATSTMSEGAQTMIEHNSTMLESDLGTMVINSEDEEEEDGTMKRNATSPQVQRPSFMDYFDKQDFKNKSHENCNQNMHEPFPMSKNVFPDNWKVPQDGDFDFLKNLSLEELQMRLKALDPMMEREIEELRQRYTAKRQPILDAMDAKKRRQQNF
In words: kinase panel. To be noted: read-out: % inhibition at 3 μM.

pIC50: −log10 of the molar value. Where only a bound is given, the exact number is not on record here.

Chain of MINK1 (Q8N4C8 whole entry): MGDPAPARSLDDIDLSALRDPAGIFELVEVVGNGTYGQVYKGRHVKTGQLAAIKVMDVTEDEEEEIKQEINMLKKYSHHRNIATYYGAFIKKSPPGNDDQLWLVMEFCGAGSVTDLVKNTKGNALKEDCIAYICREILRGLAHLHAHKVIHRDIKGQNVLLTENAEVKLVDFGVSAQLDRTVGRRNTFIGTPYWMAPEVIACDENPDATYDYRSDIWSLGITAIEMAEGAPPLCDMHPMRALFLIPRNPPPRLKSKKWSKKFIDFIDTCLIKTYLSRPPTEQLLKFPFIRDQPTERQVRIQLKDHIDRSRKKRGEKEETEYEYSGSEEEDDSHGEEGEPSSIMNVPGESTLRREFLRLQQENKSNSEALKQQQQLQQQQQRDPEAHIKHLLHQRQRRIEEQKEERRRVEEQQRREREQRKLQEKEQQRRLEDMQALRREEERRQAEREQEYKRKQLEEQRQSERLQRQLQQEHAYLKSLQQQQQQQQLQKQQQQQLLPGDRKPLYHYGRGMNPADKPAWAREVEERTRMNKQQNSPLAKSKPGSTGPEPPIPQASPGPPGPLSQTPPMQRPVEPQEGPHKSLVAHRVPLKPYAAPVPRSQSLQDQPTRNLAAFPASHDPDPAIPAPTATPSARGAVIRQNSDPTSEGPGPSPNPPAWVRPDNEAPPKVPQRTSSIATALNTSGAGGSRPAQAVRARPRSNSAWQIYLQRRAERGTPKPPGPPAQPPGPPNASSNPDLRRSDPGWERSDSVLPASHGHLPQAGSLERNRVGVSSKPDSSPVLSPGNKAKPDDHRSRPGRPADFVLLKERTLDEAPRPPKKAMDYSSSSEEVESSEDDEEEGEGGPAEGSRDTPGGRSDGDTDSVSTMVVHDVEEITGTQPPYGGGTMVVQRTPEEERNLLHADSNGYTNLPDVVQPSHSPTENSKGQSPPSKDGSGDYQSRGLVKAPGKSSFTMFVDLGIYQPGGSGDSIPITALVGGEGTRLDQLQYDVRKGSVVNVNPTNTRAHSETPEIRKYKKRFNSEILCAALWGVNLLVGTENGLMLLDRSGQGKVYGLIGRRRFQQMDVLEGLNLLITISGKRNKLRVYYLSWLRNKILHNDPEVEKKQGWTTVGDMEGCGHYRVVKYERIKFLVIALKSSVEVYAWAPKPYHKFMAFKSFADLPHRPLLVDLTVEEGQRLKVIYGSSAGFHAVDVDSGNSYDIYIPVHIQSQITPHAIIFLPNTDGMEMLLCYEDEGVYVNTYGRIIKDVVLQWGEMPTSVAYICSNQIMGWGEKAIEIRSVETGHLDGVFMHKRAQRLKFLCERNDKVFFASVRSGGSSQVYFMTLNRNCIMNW
Chain of VRK2 (Q86Y07 whole entry): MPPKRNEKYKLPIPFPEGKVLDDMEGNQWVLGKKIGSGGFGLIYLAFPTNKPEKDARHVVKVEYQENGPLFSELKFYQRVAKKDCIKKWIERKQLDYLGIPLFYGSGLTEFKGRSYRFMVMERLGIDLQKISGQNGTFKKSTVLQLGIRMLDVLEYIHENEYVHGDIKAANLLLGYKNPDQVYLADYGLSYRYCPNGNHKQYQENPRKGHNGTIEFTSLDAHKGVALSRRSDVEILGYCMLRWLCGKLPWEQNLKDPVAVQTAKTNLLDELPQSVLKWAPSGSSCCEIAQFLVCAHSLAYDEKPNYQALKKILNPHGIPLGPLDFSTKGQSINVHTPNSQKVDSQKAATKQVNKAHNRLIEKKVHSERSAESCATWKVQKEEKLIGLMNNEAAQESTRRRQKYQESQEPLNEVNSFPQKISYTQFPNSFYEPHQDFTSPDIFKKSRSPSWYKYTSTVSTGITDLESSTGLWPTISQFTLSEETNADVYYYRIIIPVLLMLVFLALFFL
Chain of MKNK1 (Q9BUB5 whole entry): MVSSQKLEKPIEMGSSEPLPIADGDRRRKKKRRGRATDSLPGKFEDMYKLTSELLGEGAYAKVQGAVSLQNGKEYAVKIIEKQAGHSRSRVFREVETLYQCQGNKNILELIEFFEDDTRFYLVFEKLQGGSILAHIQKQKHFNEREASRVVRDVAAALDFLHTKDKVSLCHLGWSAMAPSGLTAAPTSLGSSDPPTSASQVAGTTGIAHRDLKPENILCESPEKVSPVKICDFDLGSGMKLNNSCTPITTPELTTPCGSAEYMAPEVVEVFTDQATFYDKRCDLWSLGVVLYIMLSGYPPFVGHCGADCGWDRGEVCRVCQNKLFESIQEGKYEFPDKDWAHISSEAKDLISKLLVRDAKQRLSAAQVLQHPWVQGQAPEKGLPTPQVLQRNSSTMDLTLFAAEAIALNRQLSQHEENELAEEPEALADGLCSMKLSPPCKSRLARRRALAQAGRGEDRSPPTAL

Take `O=c1oc2cc(O)ccc2c2ccc(O)cc12` [UA, Urolithin A]: the inhibition at 3 µM on MKNK1, on MINK1, on VRK2 and at STK3 was > 50% each time. The same compound gave a negative-log IC50 (pIC50) in experiment [1] of 6.04.
